Experimental data taken from ChEMBL document CHEMBL1201862, “PubChem BioAssay data set” (2004).
Activity calls are given as the source filed them.

Key:
Exodeoxyribonuclease V = target: T1, Exodeoxyribonuclease V (Escherichia coli (strain K12), UniProt P04993+P07648+P08394); experiment: RecBCD inhibition via phage-restricted bacterial growth – absorbance, V66 E. coli, mutant T4 phage, counter-screen for AddAB inhibitor project, dose response (AID 492957); type: functional, cell-based, Escherichia coli str. K-12 substr. MG1655
T1 sequence (P04993 whole entry): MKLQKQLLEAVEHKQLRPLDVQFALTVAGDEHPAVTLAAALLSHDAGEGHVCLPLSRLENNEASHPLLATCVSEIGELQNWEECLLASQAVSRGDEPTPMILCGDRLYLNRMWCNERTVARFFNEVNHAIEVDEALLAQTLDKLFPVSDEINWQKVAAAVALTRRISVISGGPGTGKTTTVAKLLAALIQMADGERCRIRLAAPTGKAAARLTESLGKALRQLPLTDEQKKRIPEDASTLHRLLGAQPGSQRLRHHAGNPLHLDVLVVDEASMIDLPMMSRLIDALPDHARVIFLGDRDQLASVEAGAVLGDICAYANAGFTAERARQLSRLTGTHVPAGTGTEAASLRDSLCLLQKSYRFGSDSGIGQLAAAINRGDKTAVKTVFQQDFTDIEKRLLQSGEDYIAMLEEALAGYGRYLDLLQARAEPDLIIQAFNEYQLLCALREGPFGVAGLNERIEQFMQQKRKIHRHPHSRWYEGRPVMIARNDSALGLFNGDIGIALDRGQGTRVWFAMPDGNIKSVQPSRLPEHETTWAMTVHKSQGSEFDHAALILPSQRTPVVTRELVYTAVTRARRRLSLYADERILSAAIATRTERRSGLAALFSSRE
T1 sequence (P07648 whole entry): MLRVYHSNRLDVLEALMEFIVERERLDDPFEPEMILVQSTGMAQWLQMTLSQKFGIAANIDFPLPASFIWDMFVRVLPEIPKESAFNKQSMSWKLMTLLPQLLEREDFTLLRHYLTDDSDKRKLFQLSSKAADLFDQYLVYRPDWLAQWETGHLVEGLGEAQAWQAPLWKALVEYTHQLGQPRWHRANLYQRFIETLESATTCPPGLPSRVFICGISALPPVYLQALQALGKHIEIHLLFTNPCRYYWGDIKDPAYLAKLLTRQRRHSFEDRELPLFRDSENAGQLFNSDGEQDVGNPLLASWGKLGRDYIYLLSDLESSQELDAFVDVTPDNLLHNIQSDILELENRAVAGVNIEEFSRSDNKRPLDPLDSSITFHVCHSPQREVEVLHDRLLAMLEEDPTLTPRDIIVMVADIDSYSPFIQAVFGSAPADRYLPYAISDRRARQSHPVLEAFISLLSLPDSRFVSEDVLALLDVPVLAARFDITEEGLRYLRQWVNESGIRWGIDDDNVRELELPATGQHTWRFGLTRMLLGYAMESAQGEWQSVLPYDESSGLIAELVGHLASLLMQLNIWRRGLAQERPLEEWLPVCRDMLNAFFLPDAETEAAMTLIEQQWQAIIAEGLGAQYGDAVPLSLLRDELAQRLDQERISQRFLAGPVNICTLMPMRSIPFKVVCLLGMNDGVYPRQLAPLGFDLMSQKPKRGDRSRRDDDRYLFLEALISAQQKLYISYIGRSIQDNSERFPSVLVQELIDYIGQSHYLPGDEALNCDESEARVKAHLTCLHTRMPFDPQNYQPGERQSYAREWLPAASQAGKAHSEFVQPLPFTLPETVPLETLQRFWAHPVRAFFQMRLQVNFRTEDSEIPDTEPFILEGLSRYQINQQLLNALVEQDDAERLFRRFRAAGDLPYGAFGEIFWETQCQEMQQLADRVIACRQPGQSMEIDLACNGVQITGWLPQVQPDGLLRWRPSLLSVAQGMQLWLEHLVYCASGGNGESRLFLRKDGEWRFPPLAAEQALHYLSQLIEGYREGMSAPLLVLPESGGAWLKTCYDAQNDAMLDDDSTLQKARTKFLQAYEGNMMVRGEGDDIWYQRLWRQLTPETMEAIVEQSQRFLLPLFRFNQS
T1 sequence (P08394 whole entry): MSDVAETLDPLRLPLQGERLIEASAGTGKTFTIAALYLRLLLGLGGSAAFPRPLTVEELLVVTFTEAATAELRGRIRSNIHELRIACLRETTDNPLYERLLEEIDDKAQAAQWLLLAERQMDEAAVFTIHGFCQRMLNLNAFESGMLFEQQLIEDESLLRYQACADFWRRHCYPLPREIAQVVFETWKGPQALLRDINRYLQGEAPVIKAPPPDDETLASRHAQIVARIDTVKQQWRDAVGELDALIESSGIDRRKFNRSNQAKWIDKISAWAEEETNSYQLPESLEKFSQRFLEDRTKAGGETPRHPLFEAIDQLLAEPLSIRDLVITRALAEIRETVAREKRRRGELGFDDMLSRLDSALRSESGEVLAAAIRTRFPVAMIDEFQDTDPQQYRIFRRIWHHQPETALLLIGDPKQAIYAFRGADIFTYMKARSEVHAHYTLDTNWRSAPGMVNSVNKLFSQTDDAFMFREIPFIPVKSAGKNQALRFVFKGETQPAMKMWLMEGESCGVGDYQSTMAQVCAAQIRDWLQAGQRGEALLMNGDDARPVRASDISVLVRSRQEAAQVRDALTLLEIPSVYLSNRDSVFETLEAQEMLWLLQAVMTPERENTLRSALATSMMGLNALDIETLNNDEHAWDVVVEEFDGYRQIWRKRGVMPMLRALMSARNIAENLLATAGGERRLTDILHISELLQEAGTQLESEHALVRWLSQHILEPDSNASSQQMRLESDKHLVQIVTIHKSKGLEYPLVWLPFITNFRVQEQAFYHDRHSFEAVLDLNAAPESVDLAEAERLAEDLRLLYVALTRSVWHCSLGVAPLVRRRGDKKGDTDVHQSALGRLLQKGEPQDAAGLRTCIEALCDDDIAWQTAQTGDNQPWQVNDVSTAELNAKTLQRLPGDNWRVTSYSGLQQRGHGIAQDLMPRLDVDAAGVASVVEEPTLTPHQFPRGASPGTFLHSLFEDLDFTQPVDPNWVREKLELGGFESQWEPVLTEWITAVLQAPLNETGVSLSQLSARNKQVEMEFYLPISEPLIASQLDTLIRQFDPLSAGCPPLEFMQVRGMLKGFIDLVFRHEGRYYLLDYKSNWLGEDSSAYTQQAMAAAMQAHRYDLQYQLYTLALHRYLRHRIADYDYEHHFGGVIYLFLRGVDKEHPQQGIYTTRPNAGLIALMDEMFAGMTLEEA

[1] = target: Serine/threonine-protein kinase 17A (Homo sapiens, UniProt Q9UEE5); type: functional
Sequence of Serine/threonine-protein kinase 17A (Q9UEE5 whole entry): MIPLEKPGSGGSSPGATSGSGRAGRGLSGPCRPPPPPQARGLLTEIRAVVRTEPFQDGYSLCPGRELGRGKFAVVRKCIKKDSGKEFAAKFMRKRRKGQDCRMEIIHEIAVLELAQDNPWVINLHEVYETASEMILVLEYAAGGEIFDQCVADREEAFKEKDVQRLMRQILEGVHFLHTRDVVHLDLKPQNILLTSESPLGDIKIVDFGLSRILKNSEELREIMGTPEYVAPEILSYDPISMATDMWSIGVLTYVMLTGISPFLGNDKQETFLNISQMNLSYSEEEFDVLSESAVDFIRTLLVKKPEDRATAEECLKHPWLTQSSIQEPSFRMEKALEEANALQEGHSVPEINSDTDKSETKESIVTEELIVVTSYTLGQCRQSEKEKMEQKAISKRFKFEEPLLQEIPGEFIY

[2] = target: Rho-associated protein kinase 2 (Homo sapiens, UniProt O75116); type: functional
Sequence of Rho-associated protein kinase 2 (O75116 whole entry): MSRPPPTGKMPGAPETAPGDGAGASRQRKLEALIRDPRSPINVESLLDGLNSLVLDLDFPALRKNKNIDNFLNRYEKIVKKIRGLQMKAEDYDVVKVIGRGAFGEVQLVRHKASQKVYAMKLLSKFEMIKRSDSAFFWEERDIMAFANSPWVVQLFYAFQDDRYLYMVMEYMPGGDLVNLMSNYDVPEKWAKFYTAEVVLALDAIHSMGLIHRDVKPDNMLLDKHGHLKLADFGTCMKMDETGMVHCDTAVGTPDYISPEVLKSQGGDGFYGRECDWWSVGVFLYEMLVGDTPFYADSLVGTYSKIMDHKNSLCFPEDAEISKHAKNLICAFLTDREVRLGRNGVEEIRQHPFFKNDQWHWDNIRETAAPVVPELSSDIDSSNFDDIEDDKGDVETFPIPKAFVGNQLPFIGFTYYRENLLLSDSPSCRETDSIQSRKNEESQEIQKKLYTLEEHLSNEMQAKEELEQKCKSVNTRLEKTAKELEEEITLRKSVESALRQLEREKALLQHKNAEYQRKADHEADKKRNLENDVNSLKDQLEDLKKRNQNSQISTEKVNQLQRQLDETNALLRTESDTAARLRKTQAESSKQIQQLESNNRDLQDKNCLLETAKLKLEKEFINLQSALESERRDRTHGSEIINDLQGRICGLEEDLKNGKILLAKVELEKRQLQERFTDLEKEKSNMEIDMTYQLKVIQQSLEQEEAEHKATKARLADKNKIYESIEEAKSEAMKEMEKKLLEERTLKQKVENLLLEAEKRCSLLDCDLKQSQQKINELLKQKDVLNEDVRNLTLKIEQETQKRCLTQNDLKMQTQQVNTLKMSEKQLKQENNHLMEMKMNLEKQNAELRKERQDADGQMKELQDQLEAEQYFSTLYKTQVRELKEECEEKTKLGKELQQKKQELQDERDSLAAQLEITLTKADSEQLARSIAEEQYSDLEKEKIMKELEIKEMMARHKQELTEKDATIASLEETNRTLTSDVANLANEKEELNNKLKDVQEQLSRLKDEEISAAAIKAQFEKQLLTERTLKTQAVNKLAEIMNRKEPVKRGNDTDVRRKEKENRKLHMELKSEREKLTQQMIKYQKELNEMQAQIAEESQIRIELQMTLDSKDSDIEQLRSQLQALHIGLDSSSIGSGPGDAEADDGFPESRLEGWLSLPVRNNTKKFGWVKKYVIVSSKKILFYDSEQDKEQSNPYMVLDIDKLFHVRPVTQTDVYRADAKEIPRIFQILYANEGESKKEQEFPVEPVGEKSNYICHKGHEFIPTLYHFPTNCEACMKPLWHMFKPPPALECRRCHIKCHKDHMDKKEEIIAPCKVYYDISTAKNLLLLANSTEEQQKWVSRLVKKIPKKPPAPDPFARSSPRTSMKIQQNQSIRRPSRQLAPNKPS

[3] = target: Calcium/calmodulin-dependent protein kinase type II subunit delta (Homo sapiens, UniProt Q13557); type: functional
Sequence of Calcium/calmodulin-dependent protein kinase type II subunit delta (Q13557 whole entry): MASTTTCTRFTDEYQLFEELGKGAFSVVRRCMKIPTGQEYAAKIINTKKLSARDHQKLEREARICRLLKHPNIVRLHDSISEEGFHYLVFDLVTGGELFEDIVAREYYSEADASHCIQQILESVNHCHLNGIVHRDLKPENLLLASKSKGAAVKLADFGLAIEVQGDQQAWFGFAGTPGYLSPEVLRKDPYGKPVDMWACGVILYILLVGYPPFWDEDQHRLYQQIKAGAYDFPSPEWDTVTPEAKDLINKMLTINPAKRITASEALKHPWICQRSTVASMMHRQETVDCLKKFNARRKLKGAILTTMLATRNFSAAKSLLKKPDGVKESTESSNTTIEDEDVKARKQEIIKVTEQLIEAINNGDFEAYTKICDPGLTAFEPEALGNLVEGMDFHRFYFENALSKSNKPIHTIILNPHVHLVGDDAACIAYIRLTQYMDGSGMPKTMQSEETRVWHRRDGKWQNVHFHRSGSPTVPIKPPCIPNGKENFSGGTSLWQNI

| Ki [1] | pKi [1] | Ki [2] | pKi [2] | Ki [3] | pKi [3] | SMILES | IC50 (Exodeoxyribonuclease V) |
| --- | --- | --- | --- | --- | --- | --- | --- |
| – | – | – | – | – | – | CC(C)CC(=O)NC(c1cccs1)c1ccc2cccnc2c1O (configuration not stated) | > 119 µM (inactive) |
| 0.0316 µM (active) | 7.5 | 0.002 µM (active) | 8.7 | 0.251 µM (active) | 6.6 | NC1CCC(Nc2nc(Cl)cc(-c3c[nH]c4ncccc34)n2)CC1 (configuration not stated) | – |
